Measurements as given in ChEMBL document CHEMBL1145498, “A systematic interaction map of validated kinase inhibitors with Ser/Thr kinases” (Proc Natl Acad Sci U S A, 2007).

How the values were obtained:
[1] = target: Dual specificity mitogen-activated protein kinase kinase 2 (Homo sapiens, UniProt P36507)
[2] = target: Calcium/calmodulin-dependent protein kinase type 1G (Homo sapiens) (UniProt Q96NX5)
[3] = target: Casein kinase I isoform gamma-1 (Homo sapiens) (UniProt Q9HCP0)
[4] = target: T1, Mitogen-activated protein kinase kinase kinase 5 (Homo sapiens) (UniProt Q99683)
T1 sequence (whole entry): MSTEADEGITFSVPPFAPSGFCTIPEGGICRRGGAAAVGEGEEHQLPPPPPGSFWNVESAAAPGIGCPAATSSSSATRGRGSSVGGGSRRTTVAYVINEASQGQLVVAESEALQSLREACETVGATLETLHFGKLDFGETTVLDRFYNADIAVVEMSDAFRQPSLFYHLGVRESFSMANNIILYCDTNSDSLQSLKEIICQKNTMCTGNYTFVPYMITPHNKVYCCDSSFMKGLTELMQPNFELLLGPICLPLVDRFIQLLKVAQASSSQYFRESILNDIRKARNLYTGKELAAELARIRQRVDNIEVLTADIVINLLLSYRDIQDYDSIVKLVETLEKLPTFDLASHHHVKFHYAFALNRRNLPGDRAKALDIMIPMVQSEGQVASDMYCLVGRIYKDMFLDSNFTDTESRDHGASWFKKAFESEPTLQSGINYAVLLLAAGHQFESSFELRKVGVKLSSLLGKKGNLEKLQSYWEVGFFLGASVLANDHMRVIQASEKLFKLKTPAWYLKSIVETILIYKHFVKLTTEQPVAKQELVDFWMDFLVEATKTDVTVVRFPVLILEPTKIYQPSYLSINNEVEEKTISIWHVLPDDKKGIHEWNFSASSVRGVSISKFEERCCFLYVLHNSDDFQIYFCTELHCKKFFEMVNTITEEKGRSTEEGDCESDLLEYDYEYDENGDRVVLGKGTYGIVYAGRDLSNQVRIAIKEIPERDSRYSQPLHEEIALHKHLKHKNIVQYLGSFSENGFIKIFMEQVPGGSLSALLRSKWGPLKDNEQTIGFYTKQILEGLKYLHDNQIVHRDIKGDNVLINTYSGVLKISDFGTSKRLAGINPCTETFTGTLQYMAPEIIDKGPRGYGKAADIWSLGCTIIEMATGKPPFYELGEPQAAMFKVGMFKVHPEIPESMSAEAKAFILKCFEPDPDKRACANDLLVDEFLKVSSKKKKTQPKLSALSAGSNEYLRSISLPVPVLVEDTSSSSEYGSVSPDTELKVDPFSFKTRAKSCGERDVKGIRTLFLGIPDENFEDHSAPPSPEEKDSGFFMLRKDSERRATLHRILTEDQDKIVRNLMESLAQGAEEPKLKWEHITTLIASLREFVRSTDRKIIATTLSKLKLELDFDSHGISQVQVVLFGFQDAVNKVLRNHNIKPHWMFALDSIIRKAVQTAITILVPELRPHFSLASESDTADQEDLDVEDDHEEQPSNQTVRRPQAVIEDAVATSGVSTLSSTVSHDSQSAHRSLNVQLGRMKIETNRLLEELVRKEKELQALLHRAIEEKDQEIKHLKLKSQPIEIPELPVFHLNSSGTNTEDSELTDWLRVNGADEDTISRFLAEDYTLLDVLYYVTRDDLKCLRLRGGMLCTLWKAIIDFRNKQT

[5] = target: Calcium/calmodulin-dependent protein kinase type II subunit beta (Homo sapiens) (UniProt Q13554)
Sequence of Calcium/calmodulin-dependent protein kinase type II subunit beta (Homo sapiens) (Q13554 whole entry): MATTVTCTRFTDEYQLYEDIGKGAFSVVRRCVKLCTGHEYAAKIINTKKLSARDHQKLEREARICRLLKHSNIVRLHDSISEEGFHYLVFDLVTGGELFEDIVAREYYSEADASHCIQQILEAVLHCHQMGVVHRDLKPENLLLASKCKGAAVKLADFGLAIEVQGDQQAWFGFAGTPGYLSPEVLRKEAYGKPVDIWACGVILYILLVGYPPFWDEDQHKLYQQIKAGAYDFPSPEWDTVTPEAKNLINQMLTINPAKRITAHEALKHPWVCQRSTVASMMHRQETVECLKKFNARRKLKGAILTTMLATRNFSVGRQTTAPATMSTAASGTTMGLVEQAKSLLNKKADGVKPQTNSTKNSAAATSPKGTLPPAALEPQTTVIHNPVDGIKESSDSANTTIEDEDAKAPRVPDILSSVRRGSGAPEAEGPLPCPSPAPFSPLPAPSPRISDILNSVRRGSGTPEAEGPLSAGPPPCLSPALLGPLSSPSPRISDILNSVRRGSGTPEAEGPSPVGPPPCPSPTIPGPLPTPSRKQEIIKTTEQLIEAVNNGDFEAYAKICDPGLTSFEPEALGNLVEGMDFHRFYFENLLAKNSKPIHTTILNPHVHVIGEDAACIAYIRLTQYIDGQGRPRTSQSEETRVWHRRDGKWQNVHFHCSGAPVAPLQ

[6] = target: Serine/threonine-protein kinase 26 (Homo sapiens) (UniProt Q9P289)
[7] = target: Ribosomal protein S6 kinase alpha-3 (Homo sapiens) (UniProt P51812)
Sequence of Ribosomal protein S6 kinase alpha-3 (Homo sapiens) (P51812 whole entry): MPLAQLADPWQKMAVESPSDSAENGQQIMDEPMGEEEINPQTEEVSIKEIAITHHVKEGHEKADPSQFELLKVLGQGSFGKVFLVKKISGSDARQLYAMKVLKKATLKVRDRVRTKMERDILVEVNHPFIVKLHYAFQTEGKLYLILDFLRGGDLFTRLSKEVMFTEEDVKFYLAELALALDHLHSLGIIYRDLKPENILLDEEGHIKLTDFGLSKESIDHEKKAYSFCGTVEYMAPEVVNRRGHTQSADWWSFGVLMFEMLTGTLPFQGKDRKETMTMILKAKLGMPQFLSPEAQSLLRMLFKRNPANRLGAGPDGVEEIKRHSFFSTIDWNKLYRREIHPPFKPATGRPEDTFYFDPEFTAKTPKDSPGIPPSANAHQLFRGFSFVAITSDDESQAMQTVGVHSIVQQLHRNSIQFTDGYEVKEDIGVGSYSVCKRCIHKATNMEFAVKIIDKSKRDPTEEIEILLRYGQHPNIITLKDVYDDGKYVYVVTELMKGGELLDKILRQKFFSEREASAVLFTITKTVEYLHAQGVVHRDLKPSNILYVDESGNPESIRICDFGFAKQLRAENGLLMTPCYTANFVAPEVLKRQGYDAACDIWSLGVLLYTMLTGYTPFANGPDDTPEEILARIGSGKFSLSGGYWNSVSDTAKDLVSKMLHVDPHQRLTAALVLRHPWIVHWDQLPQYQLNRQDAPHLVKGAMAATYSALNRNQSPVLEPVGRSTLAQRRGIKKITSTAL

[8] = target: Death-associated protein kinase 3 (Homo sapiens) (UniProt O43293)
Sequence of Death-associated protein kinase 3 (Homo sapiens) (O43293 whole entry, looked up): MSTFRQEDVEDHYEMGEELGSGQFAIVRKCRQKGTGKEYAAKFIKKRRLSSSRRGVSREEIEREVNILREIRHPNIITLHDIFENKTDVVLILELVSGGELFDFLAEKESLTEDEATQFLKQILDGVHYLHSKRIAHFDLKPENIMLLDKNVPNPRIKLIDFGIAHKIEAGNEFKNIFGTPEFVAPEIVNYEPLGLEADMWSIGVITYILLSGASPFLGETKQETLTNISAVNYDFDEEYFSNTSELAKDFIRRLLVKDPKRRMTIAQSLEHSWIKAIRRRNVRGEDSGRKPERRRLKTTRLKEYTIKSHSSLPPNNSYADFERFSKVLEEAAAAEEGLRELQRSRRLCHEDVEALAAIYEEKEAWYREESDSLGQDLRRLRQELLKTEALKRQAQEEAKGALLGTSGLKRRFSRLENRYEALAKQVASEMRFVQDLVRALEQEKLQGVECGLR

[9] = target: Mitogen-activated protein kinase 6 (Homo sapiens) (UniProt Q16659)
[10] = target: Serine/threonine-protein kinase OSR1 (Homo sapiens) (UniProt O95747)
Sequence of Serine/threonine-protein kinase OSR1 (Homo sapiens) (O95747 2-527 limits assumed): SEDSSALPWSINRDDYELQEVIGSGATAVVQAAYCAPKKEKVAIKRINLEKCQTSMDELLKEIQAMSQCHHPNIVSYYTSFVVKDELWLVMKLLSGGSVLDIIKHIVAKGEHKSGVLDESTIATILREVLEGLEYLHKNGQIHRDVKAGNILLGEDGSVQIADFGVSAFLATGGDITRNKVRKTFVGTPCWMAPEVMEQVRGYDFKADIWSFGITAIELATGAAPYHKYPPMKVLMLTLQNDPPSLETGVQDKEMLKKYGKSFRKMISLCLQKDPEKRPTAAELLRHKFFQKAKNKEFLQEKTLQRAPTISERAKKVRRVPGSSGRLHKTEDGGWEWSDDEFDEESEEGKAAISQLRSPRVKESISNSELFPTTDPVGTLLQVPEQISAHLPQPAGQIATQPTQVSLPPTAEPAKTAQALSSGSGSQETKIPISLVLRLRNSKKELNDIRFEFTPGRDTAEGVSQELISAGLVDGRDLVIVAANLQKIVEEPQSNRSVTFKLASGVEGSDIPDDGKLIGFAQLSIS

[11] = target: T2, Serine/threonine-protein kinase 17A (Homo sapiens) (UniProt Q9UEE5)
T2 sequence (whole entry): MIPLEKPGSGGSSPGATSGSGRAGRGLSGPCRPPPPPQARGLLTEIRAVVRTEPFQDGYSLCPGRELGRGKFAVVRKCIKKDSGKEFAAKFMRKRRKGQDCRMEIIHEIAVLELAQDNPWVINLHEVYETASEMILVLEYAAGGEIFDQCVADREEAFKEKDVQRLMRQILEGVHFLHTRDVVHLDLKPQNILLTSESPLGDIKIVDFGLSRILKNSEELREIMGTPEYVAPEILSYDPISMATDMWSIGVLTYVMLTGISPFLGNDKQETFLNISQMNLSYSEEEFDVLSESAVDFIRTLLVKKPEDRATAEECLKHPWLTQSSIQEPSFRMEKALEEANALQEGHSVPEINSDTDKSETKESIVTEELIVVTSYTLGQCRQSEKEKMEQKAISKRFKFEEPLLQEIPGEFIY

[12] = target: Cyclin-dependent kinase-like 1 (Homo sapiens) (UniProt Q00532)
Sequence of Cyclin-dependent kinase-like 1 (Homo sapiens) (Q00532 whole entry): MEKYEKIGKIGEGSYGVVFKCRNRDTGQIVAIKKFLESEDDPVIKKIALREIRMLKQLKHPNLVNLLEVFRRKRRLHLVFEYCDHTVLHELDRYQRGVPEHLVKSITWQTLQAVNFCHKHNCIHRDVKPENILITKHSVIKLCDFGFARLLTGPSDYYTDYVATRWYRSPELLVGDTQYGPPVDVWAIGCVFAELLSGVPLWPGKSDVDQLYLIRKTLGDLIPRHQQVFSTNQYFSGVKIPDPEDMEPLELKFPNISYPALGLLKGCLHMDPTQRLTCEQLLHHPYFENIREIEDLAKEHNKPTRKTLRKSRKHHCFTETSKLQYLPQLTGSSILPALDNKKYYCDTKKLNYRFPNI

[13] = target: Serine/threonine-protein kinase RIO2 (Homo sapiens) (UniProt Q9BVS4)
Sequence of Serine/threonine-protein kinase RIO2 (Homo sapiens) (Q9BVS4 whole entry, looked up): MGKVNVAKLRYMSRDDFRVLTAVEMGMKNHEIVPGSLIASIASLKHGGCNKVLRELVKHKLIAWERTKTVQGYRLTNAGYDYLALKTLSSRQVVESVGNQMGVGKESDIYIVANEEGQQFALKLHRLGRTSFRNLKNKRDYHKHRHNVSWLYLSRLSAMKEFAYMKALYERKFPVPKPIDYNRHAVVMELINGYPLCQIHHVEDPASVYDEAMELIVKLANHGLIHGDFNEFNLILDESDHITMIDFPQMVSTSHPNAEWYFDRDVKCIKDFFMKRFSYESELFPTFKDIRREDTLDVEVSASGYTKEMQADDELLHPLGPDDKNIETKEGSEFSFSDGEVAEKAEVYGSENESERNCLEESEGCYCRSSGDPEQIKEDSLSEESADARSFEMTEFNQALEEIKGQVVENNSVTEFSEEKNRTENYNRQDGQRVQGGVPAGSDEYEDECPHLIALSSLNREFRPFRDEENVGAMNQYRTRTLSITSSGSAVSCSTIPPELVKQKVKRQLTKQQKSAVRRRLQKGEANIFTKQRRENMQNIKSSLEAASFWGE

[14] = target: T3, Dual specificity mitogen-activated protein kinase kinase 6 (Homo sapiens) (UniProt P52564)
T3 sequence (whole entry): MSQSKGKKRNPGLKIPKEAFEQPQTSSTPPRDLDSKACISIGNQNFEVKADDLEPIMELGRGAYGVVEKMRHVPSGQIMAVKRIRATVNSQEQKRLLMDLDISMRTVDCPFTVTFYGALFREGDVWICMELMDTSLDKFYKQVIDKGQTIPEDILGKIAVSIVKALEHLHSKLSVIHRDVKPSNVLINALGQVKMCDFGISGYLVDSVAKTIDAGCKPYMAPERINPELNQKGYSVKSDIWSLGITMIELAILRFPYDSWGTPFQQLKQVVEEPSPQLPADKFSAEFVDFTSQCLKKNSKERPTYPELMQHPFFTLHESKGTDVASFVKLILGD

Sequence of Calcium/calmodulin-dependent protein kinase type 1G (Homo sapiens) (Q96NX5 whole entry, canonical isoform): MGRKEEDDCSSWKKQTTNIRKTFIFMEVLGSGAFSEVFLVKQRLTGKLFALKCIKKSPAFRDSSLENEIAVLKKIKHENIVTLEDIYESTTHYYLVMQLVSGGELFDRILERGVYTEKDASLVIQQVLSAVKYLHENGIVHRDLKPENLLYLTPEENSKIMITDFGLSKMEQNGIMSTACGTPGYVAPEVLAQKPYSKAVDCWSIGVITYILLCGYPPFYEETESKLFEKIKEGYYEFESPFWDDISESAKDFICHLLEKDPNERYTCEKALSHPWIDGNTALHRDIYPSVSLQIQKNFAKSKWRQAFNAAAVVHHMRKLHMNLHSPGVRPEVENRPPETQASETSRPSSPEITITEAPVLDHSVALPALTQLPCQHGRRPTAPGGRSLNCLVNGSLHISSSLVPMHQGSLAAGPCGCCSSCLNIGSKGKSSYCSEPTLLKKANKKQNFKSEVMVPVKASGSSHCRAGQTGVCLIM
Sequence of Dual specificity mitogen-activated protein kinase kinase 2 (P36507 whole entry): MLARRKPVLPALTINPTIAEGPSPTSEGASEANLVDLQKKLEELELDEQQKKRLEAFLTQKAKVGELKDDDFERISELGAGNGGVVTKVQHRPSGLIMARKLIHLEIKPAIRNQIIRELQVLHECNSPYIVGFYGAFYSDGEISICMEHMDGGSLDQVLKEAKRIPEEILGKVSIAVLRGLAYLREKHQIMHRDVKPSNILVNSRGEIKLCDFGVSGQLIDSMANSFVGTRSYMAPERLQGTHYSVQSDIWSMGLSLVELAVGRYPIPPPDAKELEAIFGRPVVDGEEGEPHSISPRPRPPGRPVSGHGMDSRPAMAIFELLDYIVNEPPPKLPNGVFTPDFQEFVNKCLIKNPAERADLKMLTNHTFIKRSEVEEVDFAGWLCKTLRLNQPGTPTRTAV
Sequence of Casein kinase I isoform gamma-1 (Homo sapiens) (Q9HCP0 whole entry, looked up, canonical isoform): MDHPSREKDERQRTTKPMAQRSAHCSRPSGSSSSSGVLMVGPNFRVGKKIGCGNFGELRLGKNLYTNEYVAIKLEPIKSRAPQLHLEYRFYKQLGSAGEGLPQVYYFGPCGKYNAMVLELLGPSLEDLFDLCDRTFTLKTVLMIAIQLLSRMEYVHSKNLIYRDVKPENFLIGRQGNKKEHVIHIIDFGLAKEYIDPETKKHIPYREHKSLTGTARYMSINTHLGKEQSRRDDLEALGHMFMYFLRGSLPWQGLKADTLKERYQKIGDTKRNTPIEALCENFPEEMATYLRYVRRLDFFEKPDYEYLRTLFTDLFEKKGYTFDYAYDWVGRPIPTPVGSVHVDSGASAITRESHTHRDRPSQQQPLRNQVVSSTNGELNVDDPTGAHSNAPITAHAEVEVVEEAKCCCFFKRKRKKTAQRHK

| SMILES | ΔTm [1] [°C] | ΔTm [2] [°C] | ΔTm [3] [°C] | ΔTm [4] [°C] | ΔTm [5] [°C] | ΔTm [6] [°C] | ΔTm [7] [°C] | ΔTm [8] [°C] | ΔTm [9] [°C] | ΔTm [10] [°C] | ΔTm [11] [°C] | ΔTm [12] [°C] | ΔTm [13] [°C] | ΔTm [14] [°C] |
| --- | --- | --- | --- | --- | --- | --- | --- | --- | --- | --- | --- | --- | --- | --- |
| CCOc1ccc(/C=C2/SC(=O)N(CCN)C2=O)cc1 [HIAZOLIDINEDIONE1] | 0.4 | 0.2 | 0.3 | 0.4 | -0.5 | -0.1 | 0 | 0.3 | 0.6 | -0.1 | -0.6 | 0.3 | -0.2 | 0.1 |
| N#CCCc1ccc2c(c1)-c1[nH]c3ccc([N+](=O)[O-])cc3c1CC(=O)N2 [ALSTERPAULLONE 2] | 0.9 | 1.6 | 2.4 | 1.8 | 0.2 | 2.8 | 4.1 | 1.7 | 1.7 | 0.8 | 9.6 | 0.5 | 1.2 | 0.8 |
| Cc1ccc(NC2=CC(=O)c3sc(C)nc3C2=O)cc1 | -2 | -1.4 | -0.6 | -0.2 | -0.6 | -0.5 | -0.5 | -0.2 | -0.3 | -0.2 | -0.8 | -1.3 | 0.6 | -0.2 |
| C[S+]([O-])c1ccc(-c2nc(-c3ccc(F)cc3)c(-c3ccncc3)[nH]2)cc1 (stereo not drawn) [SB-203580] | 0.2 | -0.2 | 0.8 | 0.3 | 0 | -0.4 | 0.3 | -0.4 | 0 | -0.2 | 0 | -0.4 | -0.2 | -0.1 |
| O=C1c2ccccc2-[n+]2ccc3c([nH]c4ccccc43)c21 [FASCAPLYSIN CHLORIDE] | -0.8 | -3.5 | -0.6 | -2.6 | -2 | -2.5 | -0.1 | -0.5 | -1.9 | -1.5 | 1.5 | -0.5 | -0.9 | -0.8 |
| Cc1c2ccncc2c(C)c2c1[nH]c1ccccc12 [ELLIPTECINE] | 1 | 0.3 | 0.6 | 0.4 | 1 | 4.6 | 3.7 | 4.3 | 1.5 | 0.3 | 0.8 | 0.7 | 3.8 | 6.3 |
| Cl.Cn1cc(C2=C(c3ccc4cc5n(c4c3)CCC(CN)C5)C(=O)NC2=O)c2ccccc21 (stereo not drawn) | 0.1 | 0.3 | 0.5 | 0 | 1.2 | 0.3 | 6 | 0.7 | 0.7 | -0.1 | 3.5 | 0.2 | -0.2 | 1.1 |
